Data as given in ChEMBL document CHEMBL3885881, “DrugMatrix”.

Species: Rattus norvegicus
Assay: DrugMatrix - Regimen: Daily Repeat
Format: toxicity, organism-based, Sprague-Dawley
Parameters: regimen Daily Repeat, gender Male, age 6-8 weeks
Settings: in vivo, sc, 120 h, route subcutaneous, time 5 day, vehicle 100 % SALINE; for ABSOLUTE BASOPHIL / ABSOLUTE EOSINOPHIL / ABSOLUTE LYMPHOCYTE / ABSOLUTE MONOCYTE / ABSOLUTE SEGMENTED NEUTROPHIL / BASOPHIL / EOSINOPHIL / ERYTHROCYTE COUNT / HEMATOCRIT / HEMOGLOBIN / LEUKOCYTE COUNT / LYMPHOCYTE / MEAN CORPUSCULAR HEMOGLOBIN / MEAN CORPUSCULAR HEMOGLOBIN CONCENTRATION / MEAN CORPUSCULAR VOLUME / MONOCYTE / NEUTROPHIL / NUCLEATED RED BLOOD CELLS / PLATELET COUNT: tissue Blood; for ALANINE AMINOTRANSFERASE / ALBUMIN / ALKALINE PHOSPHATASE / ASPARTATE AMINOTRANSFERASE / BLOOD UREA NITROGEN / CARBON DIOXIDE / CHLORIDE / CHOLESTEROL / CREATINE PHOSPHOKINASE / CREATININE / GLUCOSE / LACTATE DEHYDROGENASE / LIPASE / PHOSPHORUS / POTASSIUM / SODIUM / TOTAL BILIRUBIN / TOTAL PROTEIN / URIC ACID: tissue Plasma

Structure (SMILES): CC(N)Cc1c[nH]c2ccc(OCc3cccs3)cc12 (centres undefined) [BW-723C86]
- ABSOLUTE BASOPHIL (0 mg/kg, dose level Control): 0 CELLS/uL
- ABSOLUTE EOSINOPHIL (0 mg/kg, dose level Control): 0 CELLS/uL
- ABSOLUTE LYMPHOCYTE (0 mg/kg, dose level Control): 5956.67 CELLS/uL
- ABSOLUTE MONOCYTE (0 mg/kg, dose level Control): 0 CELLS/uL
- ABSOLUTE SEGMENTED NEUTROPHIL (0 mg/kg, dose level Control): 510 CELLS/uL
- BASOPHIL (0 mg/kg, dose level Control): 0%
- EOSINOPHIL (0 mg/kg, dose level Control): 0%
- ERYTHROCYTE COUNT (0 mg/kg, dose level Control): 5.39 x10E6/uL
- HEMATOCRIT (0 mg/kg, dose level Control): 32.5%
- HEMOGLOBIN (0 mg/kg, dose level Control): 12.47 G/DL
- LEUKOCYTE COUNT (0 mg/kg, dose level Control): 6.47 x10E3/uL
- LYMPHOCYTE (0 mg/kg, dose level Control): 92%
- MEAN CORPUSCULAR HEMOGLOBIN (0 mg/kg, dose level Control): 23.13 pg
- MEAN CORPUSCULAR HEMOGLOBIN CONCENTRATION (0 mg/kg, dose level Control): 38.37 G/DL
- MEAN CORPUSCULAR VOLUME (0 mg/kg, dose level Control): 60.3 fL
- MONOCYTE (0 mg/kg, dose level Control): 0%
- NEUTROPHIL (0 mg/kg, dose level Control): 8%
- NUCLEATED RED BLOOD CELLS (0 mg/kg, dose level Control): 0.33 /100WBC
- PLATELET COUNT (0 mg/kg, dose level Control): 888 x10E3/uL
- ALANINE AMINOTRANSFERASE (0 mg/kg, dose level Control): 43.67 u/L
- ALBUMIN (0 mg/kg, dose level Control): 4.37 G/DL
- ALKALINE PHOSPHATASE (0 mg/kg, dose level Control): 356 u/L
- ASPARTATE AMINOTRANSFERASE (0 mg/kg, dose level Control): 74 u/L
- BLOOD UREA NITROGEN (0 mg/kg, dose level Control): 11 mg/dL
- CARBON DIOXIDE (0 mg/kg, dose level Control): 32.33 mmol/L
- CHLORIDE (0 mg/kg, dose level Control): 103.33 MEQ/L
- CHOLESTEROL (0 mg/kg, dose level Control): 70.67 mg/dL
- CREATINE PHOSPHOKINASE (0 mg/kg, dose level Control): 195.33 u/L
- CREATININE (0 mg/kg, dose level Control): 0.16 mg/dL
- GLUCOSE (0 mg/kg, dose level Control): 161.67 mg/dL
- LACTATE DEHYDROGENASE (0 mg/kg, dose level Control): 84 u/L
- LIPASE (0 mg/kg, dose level Control): 9 u/L
- PHOSPHORUS (0 mg/kg, dose level Control): 12.57 mg/dL
- POTASSIUM (0 mg/kg, dose level Control): 6.87 MEQ/L
- SODIUM (0 mg/kg, dose level Control): 147.6 MEQ/L
- TOTAL BILIRUBIN (0 mg/kg, dose level Control): 0.13 mg/dL
- TOTAL PROTEIN (0 mg/kg, dose level Control): 6.27 G/DL
- URIC ACID (0 mg/kg, dose level Control): 1.67 mg/dL
- ABSOLUTE BASOPHIL (10 mg/kg, dose level Low): 0 CELLS/uL
- ABSOLUTE EOSINOPHIL (10 mg/kg, dose level Low): 0 CELLS/uL
- ABSOLUTE LYMPHOCYTE (10 mg/kg, dose level Low): 5627 CELLS/uL
- ABSOLUTE MONOCYTE (10 mg/kg, dose level Low): 73.33 CELLS/uL
- ABSOLUTE SEGMENTED NEUTROPHIL (10 mg/kg, dose level Low): 866.33 CELLS/uL
- BASOPHIL (10 mg/kg, dose level Low): 0%
- EOSINOPHIL (10 mg/kg, dose level Low): 0%
- ERYTHROCYTE COUNT (10 mg/kg, dose level Low): 5.18 x10E6/uL
- HEMATOCRIT (10 mg/kg, dose level Low): 31.03%
- HEMOGLOBIN (10 mg/kg, dose level Low): 12 G/DL
- LEUKOCYTE COUNT (10 mg/kg, dose level Low): 6.57 x10E3/uL
- LYMPHOCYTE (10 mg/kg, dose level Low): 85.33%
- MEAN CORPUSCULAR HEMOGLOBIN (10 mg/kg, dose level Low): 23.2 pg
- MEAN CORPUSCULAR HEMOGLOBIN CONCENTRATION (10 mg/kg, dose level Low): 38.67 G/DL
- MEAN CORPUSCULAR VOLUME (10 mg/kg, dose level Low): 60 fL
- MONOCYTE (10 mg/kg, dose level Low): 1%
- NEUTROPHIL (10 mg/kg, dose level Low): 13.67%
- NUCLEATED RED BLOOD CELLS (10 mg/kg, dose level Low): 0.33 /100WBC
- PLATELET COUNT (10 mg/kg, dose level Low): 1156.33 x10E3/uL
- ALANINE AMINOTRANSFERASE (10 mg/kg, dose level Low): 53.33 u/L
- ALBUMIN (10 mg/kg, dose level Low): 4.03 G/DL
- ALKALINE PHOSPHATASE (10 mg/kg, dose level Low): 406.67 u/L
- ASPARTATE AMINOTRANSFERASE (10 mg/kg, dose level Low): 85.67 u/L
- BLOOD UREA NITROGEN (10 mg/kg, dose level Low): 14.67 mg/dL
- CARBON DIOXIDE (10 mg/kg, dose level Low): 33.33 mmol/L
- CHLORIDE (10 mg/kg, dose level Low): 103.33 MEQ/L
- CHOLESTEROL (10 mg/kg, dose level Low): 90.33 mg/dL
- CREATINE PHOSPHOKINASE (10 mg/kg, dose level Low): 200.33 u/L
- CREATININE (10 mg/kg, dose level Low): 0.18 mg/dL
- GLUCOSE (10 mg/kg, dose level Low): 150.33 mg/dL
- LACTATE DEHYDROGENASE (10 mg/kg, dose level Low): 93 u/L
- LIPASE (10 mg/kg, dose level Low): 8 u/L
- PHOSPHORUS (10 mg/kg, dose level Low): 13.1 mg/dL
- POTASSIUM (10 mg/kg, dose level Low): 7.02 MEQ/L
- SODIUM (10 mg/kg, dose level Low): 148.43 MEQ/L
- TOTAL BILIRUBIN (10 mg/kg, dose level Low): 0.1 mg/dL
- TOTAL PROTEIN (10 mg/kg, dose level Low): 6.43 G/DL
- URIC ACID (10 mg/kg, dose level Low): 1.67 mg/dL
- ABSOLUTE BASOPHIL (50 mg/kg, dose level High): 0 CELLS/uL
- ABSOLUTE EOSINOPHIL (50 mg/kg, dose level High): 0 CELLS/uL
- ABSOLUTE LYMPHOCYTE (50 mg/kg, dose level High): 7706.33 CELLS/uL
- ABSOLUTE MONOCYTE (50 mg/kg, dose level High): 71.33 CELLS/uL
- ABSOLUTE SEGMENTED NEUTROPHIL (50 mg/kg, dose level High): 3055.67 CELLS/uL
- BASOPHIL (50 mg/kg, dose level High): 0%
- EOSINOPHIL (50 mg/kg, dose level High): 0%
- ERYTHROCYTE COUNT (50 mg/kg, dose level High): 5.21 x10E6/uL
- HEMATOCRIT (50 mg/kg, dose level High): 30.4%
- HEMOGLOBIN (50 mg/kg, dose level High): 11.63 G/DL
- LEUKOCYTE COUNT (50 mg/kg, dose level High): 10.83 x10E3/uL
- LYMPHOCYTE (50 mg/kg, dose level High): 71%
- MEAN CORPUSCULAR HEMOGLOBIN (50 mg/kg, dose level High): 22.4 pg
- MEAN CORPUSCULAR HEMOGLOBIN CONCENTRATION (50 mg/kg, dose level High): 38.3 G/DL
- MEAN CORPUSCULAR VOLUME (50 mg/kg, dose level High): 58.4 fL
- MONOCYTE (50 mg/kg, dose level High): 0.67%
- NEUTROPHIL (50 mg/kg, dose level High): 28.33%
- NUCLEATED RED BLOOD CELLS (50 mg/kg, dose level High): 0.33 /100WBC
- PLATELET COUNT (50 mg/kg, dose level High): 1382.67 x10E3/uL
- ALANINE AMINOTRANSFERASE (50 mg/kg, dose level High): 47.33 u/L
- ALBUMIN (50 mg/kg, dose level High): 3.33 G/DL
- ALKALINE PHOSPHATASE (50 mg/kg, dose level High): 343 u/L
- ASPARTATE AMINOTRANSFERASE (50 mg/kg, dose level High): 83.67 u/L
- BLOOD UREA NITROGEN (50 mg/kg, dose level High): 15 mg/dL
- CARBON DIOXIDE (50 mg/kg, dose level High): 28 mmol/L
- CHLORIDE (50 mg/kg, dose level High): 104.33 MEQ/L
- CHOLESTEROL (50 mg/kg, dose level High): 78.33 mg/dL
- CREATINE PHOSPHOKINASE (50 mg/kg, dose level High): 168.33 u/L
- CREATININE (50 mg/kg, dose level High): 0.18 mg/dL
- GLUCOSE (50 mg/kg, dose level High): 174 mg/dL
- LACTATE DEHYDROGENASE (50 mg/kg, dose level High): 96.33 u/L
- LIPASE (50 mg/kg, dose level High): 8.33 u/L
- PHOSPHORUS (50 mg/kg, dose level High): 13.63 mg/dL
- POTASSIUM (50 mg/kg, dose level High): 6.41 MEQ/L
- SODIUM (50 mg/kg, dose level High): 147.13 MEQ/L
- TOTAL BILIRUBIN (50 mg/kg, dose level High): 0.1 mg/dL
- TOTAL PROTEIN (50 mg/kg, dose level High): 5.87 G/DL
- URIC ACID (50 mg/kg, dose level High): 2.1 mg/dL
